Laboratory results as given in patent US20100322979A1, “Peptidomimetic Resorbable Peptide-Polymer Hybrid Polyester Nanoparticles” (UNIVERSITY OF SOUTH CAROLINA, priority 2009, published 2010).
Read-outs that look alike come from different tables or passages of the source. Ends that are not written are not given here.

How the values were obtained:
mouse breast cancer MTCL = test: In vivo effect of the NPs on host toxicity and anti-tumor efficacy; settings: tail vein injection; Dox 6 mg/kg of body weight where present
Method: In accordance with the present disclosure, a mouse breast cancer MTCL grown under the back skin of syngeneic C3H mice was utilized. When the tumor size reached 300 mm^3, mice were randomly divided into 6 groups (10 mice/group) and received one of these treatments by tail vein injection: PBS, PLAA-EO NPs, PLAA-CV6K2 NPs, Dox, Dox+PLAA-EO NPs, and Dox+PLAA-CV6K2 NPs. The injected Dox amount was 6 mg/kg of body weight. After the treatment, body weight and tumor size were measured daily and the results are shown in FIGS. 10a and 10b, respectively. […] Near-infrared (NIR) imaging was used to determine in vivo distribution of the NPs loaded with near-infrared dye IRDye 800RS Carboxylate (absorption at 786 nm). The infrared intensity in the intestinal region was at least 100 times higher than the other regions (confirmed by sacrificing the animal and directly imaging the intestinal tissue as shown in the inset of FIG. 10c).

HCT116 tumor cell line = test: Tumor cell toxicity, MTT assay; type: cell-based; settings: Homo sapiens, HCT-116, 72 h; 40 μg/ml Paclitaxel, after 3 days; read-out: cell viability (percentage of drug-free samples)
Method: Tumor cell toxicity was determined by incubating Paclitaxel drug, encapsulated in NPs, with HCT116 tumor cell line, seeded at a density of 5×10^4 cells/cm^2 and cultured in basal media (40 μg/ml Paclitaxel) for 24, 48, and 72 h. At each time point, suspension was removed, cells were washed with PBS, and viability was assessed by the MTT assay. FIG. 3(d) compares cell viability of HCT116 cells (expressed as the percentage of the values obtained from cells in the presence of drug compared to those in drug-free samples) incubated with 40 μg/ml Paclitaxel with that incubated with the same concentration encapsulated in PLGF NPs. […] Cell viability of Paclitaxel in solution after 3 days was 40% while that encapsulated in NPs was 28%. […] Toxicity of CV6K2-PLGF NPs to normal cells was assessed with bone marrow stromal (BMS) cells isolated from the bone marrow of Wistar rats. BMS cells were seeded in 24 well plates in primary media at a density of 4×10^4 cells/cm^2, incubated for 24 h for cell attachment. After cell attachment, the media was replaced with media containing […] of CV6K2-PLGF NPs and incubated for 1, 2, and 3 days. At each time point, the cells were washed with PBS to remove the free NPs, and the fraction of viable cells was measured by the MTT assay.

[1] = Release kinetics of Paclitaxel from NPs in-vitro in PBS (pH 7.4); type: physicochemical
Method: Degradation and release characteristics of NPs. PLGF macromer with 100:0 lactide to glycolide ratio (PLAF) was synthesized by condensation polymerization. CV6K2 peptide was conjugated to PLAF to produce CV6K2-PLAF macromer. PLGF-PLEOF and CV6K2-PLGF NPs were produced by dialysis of the macromers in dimethylsulfoxide/dimethylformamide (DMSO/DMF) against water. Degradation of PLGF-PLEOF NPs was non-linear with incubation. […] To measure release kinetics, Paclitaxel was used as the surrogate molecule. Paclitaxel loaded NPs were prepared by dialysis. After dialysis, the NPs were dissolved in DMSO and 3 ml of acetonitrile-water mixture (50:50 v/v) was added. After 2 h, the suspension was centrifuged and the amount of Paclitaxel in the supernatant was measured by isocratic reverse-phase HPLC with a photodiode array detector at the wavelength of 227 nm. The encapsulation efficiency ranged from 70 to 56% and decreased with increasing Paclitaxel concentration. […]
Release profiles of Paclitaxel from CV6K2 NPs: NPs (6% Paclitaxel by weight of the PLAF or PLGF macromer) were prepared by dialysis. After dialysis for 24 h to self-assemble the macromers and to remove the unencapsulated Paclitaxel, encapsulation efficiency was determined by HPLC. The release kinetics of Paclitaxel from the NPs was measured in-vitro in PBS (pH 7.4) for up to 28 days. […]

[2] = NP morphology and size distribution by electron microscopy and dynamic light scattering; type: physicochemical; settings: Example 2
Source text: Fumarate functionalized poly(lactide-co-glycolide) (PLGF) NPs are conjugated with CV6K2 peptide to stabilize the NPs through specific interactions between the amino acid side chains. Low molecular weight poly(lactide-co-glycolide) (LMW PLGA) are synthesized by ring opening polymerization of a mixture of lactide and glycolide monomers. PLGF was synthesized by polymerization of ULMW PLGA with fumaryl chloride (FuCl). The fumarate groups in PLGF macromer provide functionality for covalent attachment of ligands which bind with high specificity to receptors on tumor-associated cells, like the αvβ3 integrin receptor. ULMW PLGA with number-average molecular weight in the range 1-3 kDa was used in the synthesis of PLGF for highest density of unsaturated fumarate groups for ligand conjugation. […] The morphology and size distribution of the NPs were determined by SEM and dynamic light scattering, respectively. […]
Nanoparticle (NP) self-assembly and characterization: PLAF-CV6K2 or PLGF-CV6K2 macromers were dissolved in a solution of 1 mL DMF and 8 mL dimethysulfoxide (DMSO). […] The size distribution of NPs was measured by dynamic light scattering (DLS). […] At each time point, NPs size was measured with DLS. […] The fraction of mass remaining was determined by dividing the dried mass in the supernatant at time t by the initial mass at time zero.

MCF-7 cells = test: Binding of cyclic peptide grafted NPs to tumor cells, confocal microscopy; type: cell-based
Source text: (§1) Targeting to tumor endothelial cells by grafting cyclic c(-RGDfC-) peptide to NPs: The linear D-Phe-Cys-Arg-Gly-Asp peptide was synthesized manually using Fmoc chemistry. After peptide chain elongation, the linear peptide was cyclized directly on the peptidyl resin by coupling the carboxylate group on aspartic acid to the amine group on phenylalanine in the peptide sequence. The cyclized peptide was side-chain deprotected, cleaved from the resin, precipitated in cold ether, and purified by preparative high-performance liquid chromatography (HPLC). The cyclic peptide was characterized by Electro Spray Ionization (ESI) spectrometry For grafting, […] peptide was incubated with NPs at ambient conditions for 10 h. After grafting, the NPs were purified by dialysis against water and incubated with MCF-7 and U87MG tumor cells. After incubation, unattached NPs were removed by washing, cells were fixed, and stained with phalloidin (for cytoskeleton) and DAPI (for cell nuclei) and imaged with confocal microscopy. FIGS. 5(a) and 5(b) show the image of MCF-7 and U87MG cells, respectively. The bright dots in FIG. 5(b) and their absence in FIG. 5(a) are the FITC-stained c(-GRGfC-) peptide grafted NPs that are attached/internalized by U87MG cells that have high expression of αvβ3 integrin receptor.

[3] = system: U87MG cells (high expression of αvβ3 integrin receptor); test: as above; type: cell-based
Source text: as §1

COc1cccc2c1C(=O)c1c(O)c3c(c(O)c1C2=O)C[C@@](O)(C(=O)CO)C[C@@H]3O[C@H]1C[C@H](N)[C@H](O)[C@H](C)O1 [Dox]
host toxicity (body weight change) (mouse breast cancer MTCL): highest body weight loss

CC(=O)O[C@H]1C(=O)[C@@]2(C)[C@H]([C@H](OC(=O)c3ccccc3)[C@]3(O)C[C@H](OC(=O)[C@H](O)[C@@H](NC(=O)c4ccccc4)c4ccccc4)C(C)=C1C3(C)C)[C@]1(OC(C)=O)CO[C@@H]1C[C@@H]2O [Paclitaxel]
viability at 40 µg/mL (HCT116 tumor cell line): 40%

CVVVVVVKK [CV6K2 NPs, NPs self-assembled from the CV6K2 peptide only]
duration of Paclitaxel release [1]: 3 days | duration of Paclitaxel release ([1]; listed as peptide): 5 days | average diameter (NP size), DLS [2]: 70 nm

c(-GRGfC-) grafted NPs: FITC-stained NPs grafted with cyclic D-Phe-Cys-Arg-Gly-Asp peptide
attachment/internalization of FITC-stained grafted NPs (MCF-7 cells): absence | attachment/internalization of FITC-stained grafted NPs [3]: attached/internalized
